According to patent US20240043450A1, “NEW COMPOUND” (JANSSEN PHARMACEUTICA NV, priority 2020, published 2024):

What was measured:
[1] = tested on: TNF; assay: PBMC assay: TNF cytokine levels in supernatant of LPS-stimulated human PBMCs (MSD); assay type: cell-based; details: 30 min compound pre-incubation, 100 ng/ml LPS for 6 hrs
Protocol: (§1) Peripheral venous blood was collected from healthy individuals and human peripheral blood mononuclear cells (PBMCs) were isolated from blood by Ficoll-Histopaque (Sigma-Aldrich, A0561) density gradient centrifugation. After isolation, PBMCs were stored in liquid nitrogen for later use. Upon thawing, PBMC cell viability was determined in growth medium (RPMI media supplemented with 10% fetal bovine serum, 1% Pen-Strep and 1% L-glutamine). Compounds were spotted in a 1:3 serial dilution in DMSO and diluted to the final concentration in 30 μl medium in 96 well plates (Falcon, 353072). PBMCs were added at a density of 7.5×10^4 cells per well and incubated for 30 min in a 5% CO2 incubator at 37° C. LPS stimulation was performed by addition of 100 ng/ml LPS (final concentration, Invivogen, tlrl-smlps) for 6 hrs followed by collection of cellular supernatant and the analysis of IL-1β […] and TNF cytokines levels […] via MSD technology according to manufacturers' guidelines (MSD, K15A0H).
The IC50 values (for IL-1β) and EC50 values (TNF) were obtained on compounds of the invention/examples, and are depicted in the following table: […]

[2] = target: T1, NLRP3 (Homo sapiens, UniProt Q96P20); assay: PBMC assay: IL-1β levels in supernatant of LPS-stimulated human PBMCs (MSD); assay type: cell-based; details: 30 min compound pre-incubation, 100 ng/ml LPS for 6 hrs, IL-1β in supernatant, read-out: IL-1B IC50
T1 construct: human peripheral blood mononuclear cells (PBMCs) were isolated from blood; endogenous in cells; host or cells: primary human PBMCs from healthy donors
T1 sequence (Q96P20 whole entry): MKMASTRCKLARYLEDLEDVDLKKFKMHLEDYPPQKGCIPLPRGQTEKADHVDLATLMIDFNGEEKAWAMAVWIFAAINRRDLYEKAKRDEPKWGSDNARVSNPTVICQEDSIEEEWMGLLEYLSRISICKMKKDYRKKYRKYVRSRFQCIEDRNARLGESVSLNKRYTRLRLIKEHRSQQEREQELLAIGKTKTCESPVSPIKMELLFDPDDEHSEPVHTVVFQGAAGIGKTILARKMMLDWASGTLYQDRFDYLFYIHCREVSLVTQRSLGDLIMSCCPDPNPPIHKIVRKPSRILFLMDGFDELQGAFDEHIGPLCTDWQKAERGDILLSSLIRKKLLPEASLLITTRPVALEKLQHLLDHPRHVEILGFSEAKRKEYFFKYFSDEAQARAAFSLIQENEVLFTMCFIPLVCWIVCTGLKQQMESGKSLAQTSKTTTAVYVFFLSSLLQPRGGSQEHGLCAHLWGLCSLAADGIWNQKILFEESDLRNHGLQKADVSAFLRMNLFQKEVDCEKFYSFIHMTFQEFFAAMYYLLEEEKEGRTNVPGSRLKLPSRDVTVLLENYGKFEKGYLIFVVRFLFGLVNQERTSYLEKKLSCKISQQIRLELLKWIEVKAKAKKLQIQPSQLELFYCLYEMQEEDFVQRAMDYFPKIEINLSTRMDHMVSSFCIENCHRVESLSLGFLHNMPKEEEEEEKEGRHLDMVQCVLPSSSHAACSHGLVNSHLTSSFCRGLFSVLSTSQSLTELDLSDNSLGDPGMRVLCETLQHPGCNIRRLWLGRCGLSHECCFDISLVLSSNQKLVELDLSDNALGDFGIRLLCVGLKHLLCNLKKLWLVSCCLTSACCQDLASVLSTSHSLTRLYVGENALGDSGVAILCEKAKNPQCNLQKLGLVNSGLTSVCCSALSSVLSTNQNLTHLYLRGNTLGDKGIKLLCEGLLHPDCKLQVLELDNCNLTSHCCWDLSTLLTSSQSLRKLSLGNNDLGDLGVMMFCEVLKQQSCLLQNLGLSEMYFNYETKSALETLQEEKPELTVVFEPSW
Protocol: The activity of a compound according to the present invention can be assessed by in vitro methods.
as §1, with “Compounds were spotted in a 1:3 serial dilution in DMSO and diluted to the final concentration in 30 μl medium in 96 well plates (Falcon, 353072).” left out

Row | Compound | EC50 ([1]; Homo sapiens, PBMC) | IC50 [2] | melting point | EC50 [1]
1 | CC(C)c1nn(CC(=O)Nc2ccc3nncn3c2)c(=O)c2sc(C3COC3)nc12 [F-24] | > 20000 nM | 567 nM | 151.3 °C | 
2 | CC(C)c1nn(CC(=O)Nc2ccn3cnnc3c2)c(=O)c2sc(C3CC3)nc12 [F-40] |  |  | 299.1 °C | > 20000 nM
3 | CC(C)c1nc2c(C(C)C)nn(CC(=O)Nc3ccncn3)c(=O)c2s1 [F-2] | 5590 nM | 105 nM |  | 
4 | CCc1nc2c(C(C)C)nn(CC(=O)Nc3ccncn3)c(=O)c2s1 [F-8, 2-(2-ethyl-4-isopropyl-7-oxo-thiazolo[4,5-d]pyridazin-6-yl)-N-pyrimidin-4-yl-acetamide] | 9200 nM | 181 nM | 186 °C | 
5 | Cc1nc2ccc(NC(=O)Cn3nc(C(C)C)c4nc(C5CC5)sc4c3=O)cn2n1 [F-30] | 19600 nM | 237 nM | 204.6 °C | 
6 | CCNc1nc2c(C(C)C)nn(CC(=O)N[C@H]3C[C@@](C)(O)C3)c(=O)c2s1 [F-18] | > 20000 nM | 128 nM | 216.6 °C | 
7 | CC(C)c1nn(CC(=O)Nc2ccc3nnc(C(F)F)n3c2)c(=O)c2sc(C3CC3)nc12 [F-39] | 13100 nM | 446 nM | 216.3 °C | 
8 | CC(C)c1nn(CC(=O)Nc2ccc3nncn3c2)c(=O)c2sc(C3CC3(F)F)nc12 (centres unmarked) [F-20] | > 20000 nM | 100 nM |  | 
9 | CC(C)c1nc2c(N(C)C)nn(CC(=O)Nc3ccc4nncn4c3)c(=O)c2s1 [F-7] | > 20000 nM | 169 nM |  | 
10 | CC(C)c1nn(CC(=O)Nc2cnc3nccn3c2)c(=O)c2sc(C3CC3)nc12 [F-37] | > 20000 nM | 247 nM | 147.1 °C | 
11 | CC(C)c1nc2c(N(C)C)nn(CC(=O)N[C@H]3C[C@@](C)(O)C3)c(=O)c2s1 [F-6] | > 20000 nM | 258 nM |  | 
12 | Cc1nnc2cc(NC(=O)Cn3nc(C(C)C)c4nc(C5CC5)sc4c3=O)ccn12 [F-35] | > 20000 nM | 1190 nM | 282.4 °C | 
13 | CC(C)c1nn(CC(=O)Nc2ccc(=O)n(C)n2)c(=O)c2sc(C3CC3)nc12 [F-16] |  | 81 nM | 233.3 °C | 
14 | O=C(Cn1nc(C2CC2)c2nc(C3CC3)sc2c1=O)Nc1ccc2nncn2c1 [F-26] | 10800 nM | 126 nM | 285 °C | 
15 | CC(C)c1nn(CC(=O)Nc2ccn3cnnc3c2)c(=O)c2sc(C3CC3)nc12 [F-17] | 12500 nM |  | 206 °C | 
16 | CC(C)c1nc2c(C(C)C)nn(CC(=O)N[C@H]3C[C@@](C)(O)C3)c(=O)c2s1 [F-5] | > 20000 nM | 156 nM |  | 

Row | Compound | EC50 ([1]; Homo sapiens, PBMC) | IC50 [2] | melting point | EC50 [1]
17 | CCc1nc2c(C(C)C)nn(CC(=O)Nc3ccc4nncn4c3)c(=O)c2s1 [F-9] | 18000 nM | 95 nM | 284.6 °C | 
18 | C[C@]1(O)C[C@@H](NC(=O)Cn2nc(C3CC3)c3nc(C4CC4)sc3c2=O)C1 [F-27] | > 20000 nM | 780 nM | 198.2 °C | 
19 | Cc1nnc2n1CC(NC(=O)Cn1nc(C(C)C)c3nc(C4CC4)sc3c1=O)CC2 (centres unmarked) [F-31] | > 20000 nM | 407 nM |  | 
20 | CC(C)c1nn(CC(=O)Nc2ccc3nncn3c2)c(=O)c2sc(C3CC3)nc12 [F-12] | 4990 nM | 23 nM |  | 
21 | CC(C)c1nn(CC(=O)Nc2ccc3c(c2)[nH]c(=O)n3C)c(=O)c2sc(C3CC3)nc12 [F-15] | 7900 nM | 26 nM |  | 
22 | Cc1nnc2n1C[C@@H](NC(=O)Cn1nc(C(C)C)c3nc(C4CC4)sc3c1=O)CC2 (single isomer, unassigned) [F-33] | > 20000 nM | 300 nM |  | 
23 | CC(C)c1nn(CC(=O)Nc2ccc3nncn3c2)c(=O)c2sc(C(F)(F)F)nc12 [F-22] | > 20000 nM | 332 nM | 261.8 °C | 
24 | Cn1nc(NC(=O)Cn2nc(C3CC3)c3nc(C4CC4)sc3c2=O)ccc1=O [F-25] | ~12600 nM | 715 nM | 219.9 °C | 
25 | CC(C)c1nn(CC(=O)Nc2ccc3nccn3c2)c(=O)c2sc(C3CC3)nc12 [F-36] | 15900 nM | 72 nM |  | 
26 | CC(C)c1nn(CC(=O)Nc2ccn3ccnc3c2)c(=O)c2sc(C3CC3)nc12 [F-29] | 12300 nM | 155 nM | 215.5 °C | 
27 | CC(C)c1nc2c(C(C)C)nn(CC(=O)Nc3ccc4nncn4c3)c(=O)c2s1 [F-4] | 11500 nM | 50 nM |  | 
28 | CC(C)c1nn(CC(=O)Nc2ccncn2)c(=O)c2sc(C3CC3)nc12 [F-1, 2-(2-cyclopropyl-4-isopropyl-7-oxo-thiazolo[4,5-d]pyridazin-6-yl)-N-pyrimidin-4-yl-acetamide] | 19700 nM | 105 nM |  | 
29 | Cc1nnc2n1C[C@H](NC(=O)Cn1nc(C(C)C)c3nc(C4CC4)sc3c1=O)CC2 (single isomer, unassigned) [F-32] | > 20000 nM | 6600 nM |  | 
30 | CC(C)c1nn(CC(=O)Nc2ccc3nncn3c2)c(=O)c2sc(C(C)(F)F)nc12 [F-23] | > 20000 nM | 89 nM |  | 
31 | CC(C)c1nc2c(C(C)C)nn(CC(=O)Nc3ccnnc3)c(=O)c2s1 [F-3] | 7180 nM | 181 nM |  | 

Other lines, results leading:

Row | EC50 ([1]; Homo sapiens, PBMC) | IC50 [2] | melting point | EC50 [1] | Compound
32 | > 20000 nM | 2310 nM |  |  | CC(C)c1nn(CC(=O)Nc2cnc3ccnn3c2)c(=O)c2sc(C3CC3)nc12 [F-44]
33 | 17900 nM | 1450 nM | 206.7 °C |  | CC(C)c1nn(CC(=O)Nc2cc(Cl)c(=O)n(C(F)F)c2)c(=O)c2sc(C3CC3)nc12 [F-48]
34 | > 20000 nM | 462 nM | 223.8 °C |  | CC(C)c1nn(CC(=O)Nc2ccc3nnc(C(F)(F)F)n3n2)c(=O)c2sc(C3CC3)nc12 [F-49, 2-(2-cyclopropyl-4-isopropyl-7-oxo-thiazolo[4,5-d]pyridazin-6-yl)-N-[3-(trifluoromethyl)-[1,2,4]triazolo[4,3-b]pyridazin-6-yl]acetamide]
35 | > 20000 nM | > 20000 nM | 172 °C |  | CC(C)c1nn(CC(=O)Nc2cc(C(F)(F)F)ncn2)c(=O)c2sc(C3CC3)nc12 [F-50]
36 | 4890 nM | 19 nM | 245.4 °C |  | CC(C)c1nn(CC(=O)Nc2ccc3nncn3n2)c(=O)c2sc(C3CC3)nc12 [F-57]
37 | 9620 nM | 102 nM | 194.9 °C |  | CC(C)c1nn(CC(=O)Nc2ccc3ncoc3c2)c(=O)c2sc(C3CC3)nc12 [F-43]
38 | 17400 nM | 907 nM | 170.1 °C |  | CC(C)c1nn(CC(=O)Nc2ccc(C(F)F)nc2)c(=O)c2sc(C3CC3)nc12 [F-45]
39 | ~17300 nM | 150 nM | 248.3 °C |  | O=C(Cn1nc(C2CC2)c2nc(C3CC3)sc2c1=O)Nc1ccc2nncn2n1 [F-54]
40 | > 20000 nM | 443 nM | 292.7 °C |  | CC(C)c1nn(CC(=O)Nc2cc(F)[nH]c(=O)c2)c(=O)c2sc(C3CC3)nc12 [F-55]
41 | ~19600 nM | 1240 nM |  |  | CC(C)c1nn(CC(=O)Nc2ccn3c(F)cnc3c2)c(=O)c2sc(C3CC3)nc12 [F-47]
42 | 10800 nM | 110 nM | 250 °C |  | Cc1nnc2ccc(NC(=O)Cn3nc(C(C)C)c4nc(C5CC5)sc4c3=O)nn12 [F-56]
43 | > 20000 nM | 137 nM | 240.9 °C |  | CC(C)c1nn(CC(=O)Nc2ccc(=O)n(C)c2)c(=O)c2sc(C3CC3)nc12 [F-46]
44 | > 20000 nM | 188 nM |  |  | CC(C)c1nn(CC(=O)Nc2ccc3nc(C#N)cn3c2)c(=O)c2sc(C3CC3)nc12 [F-42]
45 | > 20000 nM | 316 nM |  |  | CC(C)c1nn(CC(=O)Nc2cc(C#N)c3nncn3c2)c(=O)c2sc(C3CC3)nc12 [F-60, N-(8-cyano-[1,2,4]triazolo[4,3-a]pyridin-6-yl)-2-(2-cyclopropyl-4-isopropyl-7-oxothiazolo[4,5-d]pyridazin-6(7H)-yl)acetamide]
46 | 18600 nM | 56 nM |  |  | CC(C)c1nn(CC(=O)Nc2ccc3nncn3n2)c(=O)c2sc(C(C)(F)F)nc12 [F-52, N-([1,2,4]triazolo[4,3-b]pyridazin-6-yl)-2-(2-(1,1-difluoroethyl)-4-isopropyl-7-oxothiazolo[4,5-d]pyridazin-6(7H)-yl)acetamide]
47 | 19800 nM | 224 nM |  |  | CC(C)c1nn(CC(=O)Nc2ccc3nc(C(F)(F)F)cn3c2)c(=O)c2sc(C3CC3)nc12 [F-58]
48 | > 20000 nM | 286 nM |  |  | CC(C)c1nn(CC(=O)Nc2ccc3nnc(Cl)n3n2)c(=O)c2sc(C3CC3)nc12 [F-51]
